In the NIST ThermoML archive (doi:10.1016/j.jct.2005.01.017):
Several values for one entry are separate records, joined by “and”; a condition that tells them apart may be missing. Equal entries are not always repeated. ± gives the expanded uncertainty stated by the source.

How the values were obtained:
[1] = xn = mol fraction of the nth substance listed; details: 101 kPa, Liquid, x1 = 1
[2] = 101 kPa, Liquid

SMILES | mass density ([1]; 293.15 K) | mass density ([1]; 303.15 K) | mass density ([1]; 313.15 K) | mass density ([1]; 323.15 K) | mass density ([1]; 333.15 K) | mass density ([1]; 343.15 K) | mass density ([1]; 353.15 K) | mass density ([2]; 293.15 K) | mass density ([2]; 303.15 K) | mass density ([2]; 313.15 K) | mass density ([2]; 323.15 K) | mass density ([2]; 333.15 K) | mass density ([2]; 343.15 K) | mass density ([2]; 353.15 K)
Cc1cccc(C)c1 [1,3-dimethylbenzene] + CC1COC(=O)O1 | 864.2 ± 40 kg/m3 | 855.76 ± 40 kg/m3 | 847.11 ± 40 kg/m3 | 838.27 ± 40 kg/m3 | 829.22 ± 40 kg/m3 | 819.97 ± 40 kg/m3 | 810.51 ± 40 kg/m3 |  |  |  |  |  |  | 
Cc1ccccc1C [1,2-dimethylbenzene] + CC1COC(=O)O1 | 878.6 ± 40 kg/m3 | 872.25 ± 40 kg/m3 | 859.67 ± 40 kg/m3 | 840.84 ± 40 kg/m3 | 815.74 ± 40 kg/m3 | 784.38 ± 40 kg/m3 |  |  |  |  |  |  |  | 
Cc1ccc(C)cc1 [1,4-dimethylbenzene] |  |  |  |  |  |  |  | 861 ± 1.8 kg/m3 | 852.28 ± 1.9 kg/m3 | 843.58 ± 1.9 kg/m3 | 834.92 ± 2 kg/m3 | 826.27 ± 2.1 kg/m3 | 817.66 ± 2.2 kg/m3 | 809.07 ± 2.2 kg/m3
Cc1ccc(C)cc1 [1,4-dimethylbenzene] + CC1COC(=O)O1 | 861 ± 40 kg/m3 | 852.28 ± 40 kg/m3 | 843.58 ± 40 kg/m3 | 834.92 ± 40 kg/m3 | 826.27 ± 40 kg/m3 | 817.66 ± 40 kg/m3 | 809.07 ± 40 kg/m3 |  |  |  |  |  |  | 
CC1COC(=O)O1 (configuration not stated) [4-methyl-1,3-dioxolan-2-one] |  |  |  |  |  |  |  | 1200.25 ± 40 kg/m3 | 1180.55 ± 40 kg/m3 and 1180.56 ± 40 kg/m3 | 1161.28 ± 40 kg/m3 | 1142.43 ± 40 kg/m3 | 1123.99 ± 40 kg/m3 | 1105.98 ± 40 kg/m3 | 1088.38 ± 40 kg/m3
Cc1ccccc1C [1,2-dimethylbenzene] |  |  |  |  |  |  |  | 878.6 ± 40 kg/m3 | 872.25 ± 40 kg/m3 | 859.67 ± 40 kg/m3 | 840.84 ± 40 kg/m3 | 815.74 ± 40 kg/m3 | 784.38 ± 40 kg/m3 | 
Cc1cccc(C)c1 [1,3-dimethylbenzene] |  |  |  |  |  |  |  | 864.2 ± 1.9 kg/m3 | 855.76 ± 2 kg/m3 | 847.11 ± 2.1 kg/m3 | 838.27 ± 2.1 kg/m3 | 829.22 ± 2.2 kg/m3 | 819.97 ± 2.3 kg/m3 | 810.51 ± 2.3 kg/m3
